Holding throughout (type): binding
In test [1] the target is T1, human MDM2 protein (amino acids 2-188) (Homo sapiens, UniProt Q00987).
T1 construct: human MDM2 protein (amino acids 2-188); made in house
Kind of test: p53-MDM2 TR-FRET assay (p53-MDM2 Assay 1). Conditions: 1.25 nM MDM2-biotinylated, 10 nM Cy5-p53 peptide; read-out: IC50 (μM) of p53-Hdm2 inhibition (TR-FRET) Assay 1. In short, it runs like this: (§1)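 C-terminally biotinylated MDM2 (aa 2-188, 1.25 nM) or MDM4 (aa 2-185, 2.5 nM) with Eu-streptavidin (0.625 nM), 15 min preincubation, then 10 nM Cy5-p53 peptide (aa18-26), 15 min room temperature; TR-FRET 665/620 nm ratio, IC50 by curve fit. Modified MDM2 Assay 2 uses 0.1 nM MDM2 and 0.1 nM Eu-streptavidin.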
(In TR-FRET formats the signal depends on donor and acceptor labels being close together.)

Test [2] deals with T1, human MDM2 protein (amino acids 2-188). Kind of test: p53-MDM2 TR-FRET assay, modified (p53-MDM2 Assay 2). The note with it: 0.1 nM MDM2, 0.1 nM Europium labeled streptavidin; read-out: IC50 (nM) of p53-Hdm2 inhibition (TR-FRET) Assay 2. Here is the method: Time Resolved Fluorescence Energy Transfer (TR-FRET) Assay
The inhibition of p53-MDM2 and p53-MDM4 interactions is measured by time resolved fluorescence energy transfer (TR-FRET). Fluorescence energy transfer (or Foerster resonance energy transfer) describes an energy transfer between donor and acceptor fluorescent molecules. For this assay, human MDM2 protein (amino acids 2-188) and human MDM4 protein (amino acids 2-185), tagged with a C-terminal biotin moiety, are used in combination with a Europium labeled streptavidin (Perkin Elmer, Inc., Waltham, Mass., USA) serving as the donor fluorophore. The p53 derived, Cy5 labeled peptide Cy5-TFSDLWKLL (p53 aa18-26) is the energy acceptor. Upon excitation of the donor molecule at 340 nm, binding interaction between MDM2 or MDM4 and the p53 peptide induces energy transfer and enhanced response at the acceptor emission wavelength at 665 nm. Disruption of the formation of the p53-MDM2 or p53-MDM4 complex due to an inhibitor molecule binding to the p53 binding site of MDM2 or MDM4 results in increased donor emission at 620 nm. The ratiometric FRET assay readout is calculated from the raw data of the two distinct fluorescence signals measured in time resolved mode (fluorescence 665 nm/fluorescence 620 nm×1000).
After addition of 1.25 nM MDM2-biotinylated or 2.5 nM MDM4-biotinylated (internal preparations), and 0.625 nM Europium labeled streptavidin (Perkin Elmer), the solution is pre-incubated for 15 minutes at room temperature, then 10 nM Cy5-p53 peptide (internal preparation) is added before an incubation at room temperature for 15 minutes prior to reading the plate. For measurement of samples, a Victor II microplate reader (Perkin Elmer) is used with the following settings: Excitation 340 nm, Emission Donor 620 nm and Emission Acceptor 665 nm. IC50 values are calculated by curve fitting using XLfit. If not specified, reagents are purchased from Sigma-Aldrich Chemie GmBH, Buchs, Switzerland.
This assay was used to evaluate compounds displaying inhibition of p53-MDM2 interaction and p53-MDM4 interaction at IC50s of 0.005 to 50 μM (p53-MDM2 Assay 1 and p53-MDM4 Assay 1, respectively). For selected compounds displaying IC50s between […] on MDM2, a slightly modified assay is used with the following adaptations: 0.1 nM MDM2, 0.1 nM Europium labeled streptavidin and Tecan genios Pro is used as a microplate reader for the fluorescence measurements (p53-MDM2 Assay 2).

Test [3] deals with T2, human MDM4 protein (amino acids 2-185) (Homo sapiens, UniProt O15151).
T2 construct: human MDM4 protein (amino acids 2-185); made in house
T2 sequence (O15151 2-185): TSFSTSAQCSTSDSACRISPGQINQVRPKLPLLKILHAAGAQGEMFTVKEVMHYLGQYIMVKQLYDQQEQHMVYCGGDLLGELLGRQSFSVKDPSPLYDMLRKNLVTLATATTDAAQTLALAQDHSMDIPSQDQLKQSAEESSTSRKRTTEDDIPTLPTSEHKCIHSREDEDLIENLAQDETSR
Kind of test: p53-MDM4 TR-FRET assay (p53-MDM4 Assay 1). Conditions: 2.5 nM MDM4-biotinylated, 10 nM Cy5-p53 peptide; read-out: IC50 (μM) of p53-Hdm4 inhibition (TR-FRET) Assay 1. In a few lines: as §1

The values below come from patent US8859535B2, “Hydroxy substituted isoquinolinone derivatives” (Novartis AG, priority 2011, dated 2014).

The term IC50 denotes the concentration needed to halve the response being measured.

T1 sequence (Q00987 2-188): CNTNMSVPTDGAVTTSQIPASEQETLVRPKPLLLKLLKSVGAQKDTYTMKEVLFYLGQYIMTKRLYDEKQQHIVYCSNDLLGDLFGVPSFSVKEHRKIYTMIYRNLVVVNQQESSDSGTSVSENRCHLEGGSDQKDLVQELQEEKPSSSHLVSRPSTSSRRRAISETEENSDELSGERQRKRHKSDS

For `COc1cc2c(cc1OC(C)C)[C@H](c1ccc(Cl)cc1)N(c1ccc(C(C)(O)C3CCN(C(=O)F)CC3)cc1)C(=O)C2` (mixture of isomers) [Example 90, 4-(1-{4-[(S)-1-(4-Chloro-phenyl)-7-isopropoxy-6-methoxy-3-oxo-3,4-dihydro-1H-isoquinolin-2-yl]-phenyl}-1-hydroxy-ethyl)-piperidine-1-carbonyl fluoride], the IC50 in test [1] came out at 0.0026 µM; in test [2], 1.38 nM; in test [3], 2.31 µM.

Consider `COc1cc2c(cc1OC(C)C)[C@H](c1ccc(Cl)cc1)N(c1ccc(C(C)(O)C3CCN(C(=O)COC(C)=O)CC3)cc1)C(=O)C2` (mixture of isomers) [Example 91, Acetic acid 2-[4-(1-{4-[(S)-1-(4-chloro-phenyl)-7-isopropoxy-6-methoxy-3-oxo-3,4-dihydro-1H-isoquinolin-2-yl]-phenyl}-1-hydroxy-ethyl)-piperidin-1-yl]-2-oxo-ethyl ester], for which the IC50 worked out at 0.0023 µM in test [1], 1.85 nM in test [2] and 2.16 µM in test [3].

Take `COc1cc2c(cc1OC(C)C)[C@H](c1ccc(Cl)cc1)N(c1ccc(C(C)(O)C3CCN(C(=O)CO)CC3)cc1)C(=O)C2` (mixture of isomers) [Example 92, (S)-1-(4-Chloro-phenyl)-2-(4-{1-hydroxy-1-[1-(2-hydroxy-acetyl)-piperidin-4-yl]-ethyl}-phenyl)-7-isopropoxy-6-methoxy-1,4-dihydro-2H-isoquinolin-3-one]: the IC50 in test [1] was 0.0036 µM; in test [2], 1.84 nM; in test [3] it was 2.71 µM.

On to `COc1cc2c(cc1OC(C)C)[C@H](c1ccc(Cl)cc1)N(c1ccc(C(C)(O)C3CC4CCC(C3)O4)cc1)C(=O)C2` (mixture of isomers) [Example 158, (S)-1-(4-Chloro-phenyl)-2-{4-[1-hydroxy-1-(8-oxabicyclo[3.2.1]oct-3-yl)-ethyl]-phenyl}-7-isopropoxy-6-methoxy-1,4-dihydro-2H-isoquinolin-3-one], for which the IC50 in test [1] was determined as 0.0028 µM; in test [2] it was 1.2 nM; in test [3] it was 2.84 µM.

Regarding `COc1cc2c(cc1OC(C)C)[C@H](c1ccc(Cl)cc1)N(c1ccc(C(C)(O)C3CC4CCCC(C3)S4(=O)=O)cc1)C(=O)C2` (mixture of isomers) [Example 175, (S)-1-(4-Chloro-phenyl)-2-{4-[1-(9,9-dioxo-9-thia-bicyclo[3.3.1]non-3-yl)-1-hydroxy-ethyl]-phenyl}-7-isopropoxy-6-methoxy-1,4-dihydro-2H-isoquinolin-3-one], the figures for the IC50 in test [1], in test [2] and in test [3] were 0.0028 µM, 1.92 nM and 3.58 µM, respectively.

On to `COc1cc2c(cc1OC(C)C)[C@H](c1ccc(Cl)cc1)N(c1ccc([C@@](C)(O)C3CCN(C)CC3)cc1)C(=O)C2` (single isomer, unassigned) [Example 94], for which the figures for the IC50 in test [1], in test [2] and in test [3] were 0.0016 µM, 1.06 nM and 1.75 µM, respectively.

On to `CC[C@@H](C)Oc1cc2c(cc1OC)CC(=O)N(c1ccc(C(C)(O)C3CCN(C(C)=O)CC3)cc1)[C@H]2c1ccc(Cl)cc1` (stereo partly drawn) [Example 52, (S)-2-{4-[1-(1-Acetyl-piperidin-4-yl)-1-hydroxy-ethyl]-phenyl}-7-((R)-sec-butoxy)-1-(4-chloro-phenyl)-6-methoxy-1,4-dihydro-2H-isoquinolin-3-one], for which the IC50 in test [1] turned out to be 0.0018 µM; in test [2], 1.98 nM; in test [3], 2.32 µM.

Take `COC(=O)N1CCC(C(C)(O)c2ccc(N3C(=O)Cc4cc(OC)c(OC(C)C)cc4[C@@H]3c3ccc(Cl)cc3)cc2)CC1` (stereo partly drawn) [Example 76, 4-(1-{4-[(S)-1-(4-Chloro-phenyl)-7-isopropoxy-6-methoxy-3-oxo-3,4-dihydro-1H-isoquinolin-2-yl]-phenyl}-1-hydroxy-ethyl)-piperidine-1-carboxylic acid methyl ester]: the IC50 in test [1] came to 0.0017 µM; in test [2] it was 2.34 nM; in test [3], 1.91 µM.

Turning to `COc1cc2c(cc1OC(C)C)[C@H](c1ccc(Cl)cc1)N(c1ccc([C@](C)(O)C3CC4CCCC(C3)S4(=O)=O)cc1)C(=O)C2` (stereo partly drawn) [Example 176, (S)-1-(4-Chloro-phenyl)-2-{4-[(R)-1-(9,9-dioxo-9-thia-bicyclo[3.3.1]non-3-yl)-1-hydroxy-ethyl]-phenyl}-7-isopropoxy-6-methoxy-1,4-dihydro-2H-isoquinolin-3-one], the IC50 in test [2] came out at 98 nM.

In the case of `COc1cc2c(cc1OC(C)C)[C@H](c1ccc(Cl)cc1)N(c1ccc([C@@](C)(O)C3CC4CCCC(C3)S4(=O)=O)cc1)C(=O)C2` (stereo partly drawn) [Example 177, (S)-1-(4-Chloro-phenyl)-2-{4-[(S)-1-(9,9-dioxo-9-thia-bicyclo[3.3.1]non-3-yl)-1-hydroxy-ethyl]-phenyl}-7-isopropoxy-6-methoxy-1,4-dihydro-2H-isoquinolin-3-one], the IC50 in test [2] was 1.15 nM.

As for `COc1cc2c(cc1OC(C)C)[C@H](c1ccc(Cl)cc1)N(c1ccc(C(C)(O)C34CCC(CC3)OC4)cc1)C(=O)C2` (stereo partly drawn) [Example 178, (S)-1-(4-Chloro-phenyl)-2-{4-[1-hydroxy-1-(2-oxa-bicyclo[2.2.2]oct-4-yl)-ethyl]-phenyl}-7-isopropoxy-6-methoxy-1,4-dihydro-2H-isoquinolin-3-one], the IC50 in test [2] came out at 1.59 nM.

In the case of `COc1cc2c(cc1OC(C)C)[C@H](c1ccc(Cl)cc1)N(c1ccc(C(C)(O)[C@H]3CCCN(C(=O)OC(C)(C)C)C3)cc1)C(=O)C2` (stereo partly drawn) [Example 179, (S)-3-(1-{4-[(S)-1-(4-Chloro-phenyl)-7-isopropoxy-6-methoxy-3-oxo-3,4-dihydro-1H-isoquinolin-2-yl]-phenyl}-1-hydroxy-ethyl)-piperidine-1-carboxylic acid tert-butyl ester], the IC50 in test [2] amounted to 1.28 nM.

`COc1cc2c(cc1OC(C)C)[C@H](c1ccc(Cl)cc1)N(c1ccc(C(C)(O)[C@H]3CCCNC3)cc1)C(=O)C2` (stereo partly drawn) [Example 180, (S)-1-(4-Chloro-phenyl)-2-[4-((S)-1-hydroxy-1-piperidin-3-yl-ethyl)-phenyl]-7-isopropoxy-6-methoxy-1,4-dihydro-2H-isoquinolin-3-one]: in test [2], the IC50 worked out at 2.25 nM.

Consider `COc1cc2c(cc1OC(C)C)[C@H](c1ccc(Cl)cc1)N(c1ccc(C(C)(O)[C@H]3CCCN(C)C3)cc1)C(=O)C2` (stereo partly drawn) [Example 181, (S)-1-(4-Chloro-phenyl)-2-{4-[1-hydroxy-1-((S)-1-methyl-piperidin-3-yl)-ethyl]-phenyl}-7-isopropoxy-6-methoxy-1,4-dihydro-2H-isoquinolin-3-one], for which the IC50 in test [2] was 5.13 nM.

As for `COc1cc2c(cc1OC(C)C)[C@H](c1ccc(Cl)cc1)N(c1ccc(C(C)(O)[C@H]3CCCN(C=O)C3)cc1)C(=O)C2` (stereo partly drawn) [Example 182, (S)-3-(1-{4-[(S)-1-(4-Chloro-phenyl)-7-isopropoxy-6-methoxy-3-oxo-3,4-dihydro-1H-isoquinolin-2-yl]-phenyl}-1-hydroxy-ethyl)-piperidine-1-carbaldehyde], the IC50 in test [2] amounted to 0.329 nM.

Regarding `COc1cc2c(cc1OC(C)C)[C@H](c1ccc(Cl)cc1)N(c1ccc(C(C)(O)[C@H]3CCCN(C4COC4)C3)cc1)C(=O)C2` (stereo partly drawn) [Example 183, (S)-1-(4-Chloro-phenyl)-2-{4-[1-hydroxy-1-((S)-1-oxetan-3-yl-piperidin-3-yl)-ethyl]-phenyl}-7-isopropoxy-6-methoxy-1,4-dihydro-2H-isoquinolin-3-one], in test [2], the IC50 came out at 8.78 nM.
